Assays:
[1] = Relative oxidative stability of fish oil nanoemulsions, formation of conjugated dienes (AOCS Ti-1a-64); conditions: for antioxidant efficiency order (time needed to reach 0.5% conjugated dienes): 1:9 fish nanoemulsions, T = 25 °C, [AOT] = 0.1 mM
Excerpt: Accelerated tests are commonly used to assess the relative stability of emulsions because of their reproducibility. In the present work, we used the AOCS official standard method Ti-1a-64 to determine the relative antioxidant efficiency of the antioxidants under a set of standardized conditions. For this purpose, we measured the formation of conjugated dienes (CD) with time following the procedure described in detail elsewhere. […] We, however, controlled their stability visually; no phase separation was detected.
We estimated the relative oxidative stability of fish oil nanoemulsions by controlling the extent of lipid oxidation under a set of standardized conditions. For this purpose, we measured the level of oxidation on the basis of the production of conjugated dienes (CD) with time. The method, identical to the AOCS official standard method Ti-1a-64, is rather sensitive and reproducible and suitable for monitoring the early stages of lipid oxidation. Figure 12A is illustrative of a typical oxidation kinetics experiment and where one can observe a constant small increase (lag time) up to a sudden increase in the formation of conjugated dienes (CD). The relative efficiency was assessed by determining the necessary time to reach an increase in CD production of 0.5%. Further details on the experimental procedure and calculations can be found elsewhere.

[2] = Shake-flask partition in binary stripped fish oil–water mixtures in the absence of emulsifier; format: physicochemical; conditions: binary 1:9 (v:v) fish oil:water mixture, 25 °C; for partition constant PW^O: average of four runs; for %AOO, percentage present in the oil phase / %AOW, percentage present in the aqueous phase: no emulsifier, pH 3.0 buffer
Procedure: The partition constants, PW^O, of HT and some of its esters were determined, by employing the shake-flask method, in binary stripped fish oil–water mixtures in the absence of emulsifier. Sets of four 1:9 (v:v, oil:water, total volume = 10 mL) binary mixtures, each one containing the same AO, were prepared by stirring the mixture at high speed for 1 min. HT and the C1–C3 derivatives were dissolved in the buffered aqueous solution; meanwhile, those with longer alkyl chains were dissolved in the fish oil phase. The final stoichiometric concentration of AOs was 3.5 mM in all samples. Mixtures were stirred at high speed for 2 min and then equilibrated at T = (25 ± 1) °C for at least 24 h in the dark. The resulting two phases were then divided by centrifugation. Concentrations of the AOs in each phase were estimated by interpolation in previously prepared calibration curves by employing UV-Vis (λ = 285 nm). Further details on the method have been published elsewhere.
The reported PW^O values in Table 2 are average of the four runs. The PW^O values for the more hydrophobic antioxidants are not reported because of the high uncertainty in their values, as the ratio of percentages may be susceptible to small errors in the determination of the values of the AO concentrations in the aqueous phase. In any case, PW^O values higher than 150 indicate that AOs are, essentially, water insoluble.

[3] = Distribution and effective interfacial concentrations of AOs in fish oil nanoemulsions, calculated from partition constants; format: physicochemical; conditions: for order of the percentages of AOs in the interfacial region (%AOI): at any ΦI value
Excerpt: The values of the partition constants PO^I and PW^I in Table 3 were used to estimate the distribution of the AOs in the intact nanoemulsions. Details of the calculations and the equations employed are not given here to keep focus and for the sake of clarity, but can be easily found elsewhere.
In Equation (5), nT represents the total number of moles of the antioxidant, VT the total volume of the emulsion, and ΦI is the interfacial volume fraction. To distinguish between the stoichiometric and effective concentrations, we employed square brackets, [ ], defined as molarity of total emulsion volume, and parenthesis, ( ), defined as molarity of the interfacial region, respectively. The reader must be aware that VI, is the sum of all of the interfacial volumes of all of the aggregates present in the system, and that it matches that of the total volume of the added surfactant. Emulsion droplets and other association colloids as micelles present in the system are broken and reformed at rates much faster than those of the relevant chemical reactions, allowing rapid transfer of materials between them. That is, they are in dynamic equilibrium. (5) (AOI)=nI/VI=nT(%AOI)/VI=nT/VT(%AOI)/VI/VT=[AOT](%AOI)/ΦI

[4] = DPPH radical assay, EC50 values at different reaction times; format: biochemical; conditions: T = 25 °C
Procedure: To check if the same insignificant changes hold for HT derivatives, we further tested the point by determining the EC50 values for the different HT derivatives. A UV-Vis Powerwave XS Microplate Reader (96-well microplate, Bio-Tek Instruments, Inc., Winooski, VT, USA) was employed to monitor the loss of DPPH^● (from reaction with each AO) at T = 25.0 ± 0.1 °C. The absorbance of each well was recorded (λ = 515 nm) at 60 s intervals for a 4000 s period, Figure 3.
Each set of experiments was performed in triplicate and, in some instances, in quadruplicate, and the reported EC50 values in Table 1 (determined from data in Figure 3) are the average of these repetitions.

[5] = Chemical kinetic method (pseudophase model) with the probe 16-ArN2^+ in intact fish oil-in-water nanoemulsions; format: physicochemical; conditions: intact 1:9 fish oil-in-water nanoemulsions, T = 25 °C; for 10^2 kI, interfacial rate constant for the reaction between 16ArN2^+ and AO: values given as 10^2 kI
Procedure: The distribution of HT and its derivatives was determined by using a chemical kinetic method, as have been published elsewhere based on the reaction between a chemical probe (16-ArN2^+, specifically localized at the interface) and the AOs. The changes detected in the observed rate constant for this reaction (kobs) at different surfactant volume fractions (ΦI) were evaluated according to the pseudophase kinetic model developed by Romsted and Bravo-Díaz and explained in detail elsewhere.
The chemical probe 16-ArN2^+ reacts, virtually, with any antioxidant as described elsewhere and the reaction can be monitored by UV-Vis with the aid of a specially developed derivatization protocol. […] The absorbance of the resulting azo dye was monitored at λ = 572 nm once diluted with a 50:50 (v:v) BuOH:EtOH mixture. This dilution step is critical and its purpose is to obtain an optically transparent, homogeneous solution. Details of the complete procedure have been published elsewhere.
Succinctly, after initiating the reaction between 16-ArN2^+ and the antioxidants in the intact emulsion, constant volumes (200 µL) of the nanoemulsion were extracted at given time periods and rapidly added to numbered glass tubes to quench the reaction. Because the quenching reaction is much faster than the reaction between 16-ArN2^+ and the antioxidants, the absorbance of the formed azo dye is proportional to the concentration of unreacted 16-ArN2^+ so that the decrease in absorbance of the azo dye with time can be used to determine kobs. For this purpose, we fitted the experimental (absorbance, time) pairs of data to the integrated first-order rate equation by using a non-linear least squares method provided by a commercial computer program. Figure 4 illustrates the typical variations of the absorbance of the azo dye versus time as determined in the intact fish oil-in-water nanoemulsions. The solid lines are the fitting curves to the integrated and linearized first-order equations.
The relationships between kobs and the partition constants of the AOs between the oil-interfacial, PO^I, and aqueous-interfacial, PW^I, regions are given by Equations (1)–(3), and the partition constants were estimated by fitting the variations of 1/kobs, with ΦI at constant stoichiometric concentration of the antioxidant ([AOT] = 2.5 × 10^−3 M), ΦW (ΦW = 0.9) and ΦO (ΦO = 0.1) as explained in detail elsewhere.
The experimental (kobs, ΦI) pairs of data were fitted to the equations derived from the pseudophase model Equations (1)–(3), which hold for very hydrophilic (Equation (1)) and very hydrophobic (Equation (2)) antioxidants and for those of intermediate hydrophobicity (3).

Compound: CCC(=O)OCCc1ccc(O)c(O)c1 [C3]
- antioxidant efficiency order (time needed to reach 0.5% conjugated dienes) [1]: C8 > C10 > C16 > C3 > HT >> control
- partition constant PW^O [2]: 7.8 ± 0.4
- %AOO, percentage present in the oil phase [2]: 46.37%
- %AOW, percentage present in the aqueous phase [2]: 53.63%
- order of the percentages of AOs in the interfacial region (%AOI) [3]: %HTI < %C3I < %C16I < %C12I < %C10I < %C8I
- EC50 ([4]; t = 5 min): 0.345 ± 0.004 mol AO/mol DPPH^●
- EC50 ([4]; t = 15 min): 0.299 ± 0.002 mol AO/mol DPPH^●
- EC50 ([4]; t = 30 min): 0.289 ± 0.005 mol AO/mol DPPH^●
- EC50 ([4]; t = 60 min): 0.280 ± 0.003 mol AO/mol DPPH^●
- partition constant PO^I (oil-interfacial) [5]: 28 ± 3
- partition constant PW^I (aqueous-interfacial) [5]: 229 ± 40
- 10^2 kI, interfacial rate constant for the reaction between 16ArN2^+ and AO [5]: 27.7 ± 4.7 M^−1 s^−1

Compound: CCCCCCCCCCCCCCCC(=O)OCCc1ccc(O)c(O)c1 [C16]
- antioxidant efficiency order (time needed to reach 0.5% conjugated dienes) [1]: C8 > C10 > C16 > C3 > HT >> control
- order of the percentages of AOs in the interfacial region (%AOI) [3]: %HTI < %C3I < %C16I < %C12I < %C10I < %C8I
- EC50 ([4]; t = 5 min): 0.331 ± 0.011 mol AO/mol DPPH^●
- EC50 ([4]; t = 15 min): 0.305 ± 0.006 mol AO/mol DPPH^●
- EC50 ([4]; t = 30 min): 0.302 ± 0.011 mol AO/mol DPPH^●
- EC50 ([4]; t = 60 min): 0.298 ± 0.007 mol AO/mol DPPH^●
- partition constant PO^I (oil-interfacial) [5]: 13 ± 2
- 10^2 kI, interfacial rate constant for the reaction between 16ArN2^+ and AO [5]: 25.0 ± 0.8 M^−1 s^−1

Compound: O=COCCc1ccc(O)c(O)c1 [C1]
- EC50 ([4]; t = 5 min): 0.338 ± 0.005 mol AO/mol DPPH^●
- EC50 ([4]; t = 15 min): 0.296 ± 0.003 mol AO/mol DPPH^●
- EC50 ([4]; t = 30 min): 0.288 ± 0.003 mol AO/mol DPPH^●
- EC50 ([4]; t = 60 min): 0.277 ± 0.003 mol AO/mol DPPH^●

Compound: CCCCCCCC(=O)OCCc1ccc(O)c(O)c1 [C8]
- antioxidant efficiency order (time needed to reach 0.5% conjugated dienes) [1]: C8 > C10 > C16 > C3 > HT >> control
- decrease in efficiency on an increase in ΦI of ∼8 times ([1]; increase in ΦI of ∼8 times): ~1.5 times
- increase in the oxidative stability of nanoemulsion compared with the control ([1]; ΦI = 0.005): ~10 times
- order of the percentages of AOs in the interfacial region (%AOI) [3]: %HTI < %C3I < %C16I < %C12I < %C10I < %C8I
- effective interfacial concentration relative to the stoichiometric concentration ([3]; lowest surfactant fraction ΦI = 0.005, constant o/w ratio): about 100 times
- EC50 ([4]; t = 5 min): 0.295 ± 0.005 mol AO/mol DPPH^●
- EC50 ([4]; t = 15 min): 0.265 ± 0.005 mol AO/mol DPPH^●
- EC50 ([4]; t = 30 min): 0.256 ± 0.007 mol AO/mol DPPH^●
- EC50 ([4]; t = 60 min): 0.239 ± 0.003 mol AO/mol DPPH^●
- partition constant PO^I (oil-interfacial) [5]: 22 ± 2
- 10^2 kI, interfacial rate constant for the reaction between 16ArN2^+ and AO [5]: 21.0 ± 0.3 M^−1 s^−1

Compound: CCCCCCCCCCCC(=O)OCCc1ccc(O)c(O)c1 [C12]
- order of the percentages of AOs in the interfacial region (%AOI) [3]: %HTI < %C3I < %C16I < %C12I < %C10I < %C8I
- EC50 ([4]; t = 5 min): 0.345 ± 0.005 mol AO/mol DPPH^●
- EC50 ([4]; t = 15 min): 0.319 ± 0.004 mol AO/mol DPPH^●
- EC50 ([4]; t = 30 min): 0.309 ± 0.011 mol AO/mol DPPH^●
- EC50 ([4]; t = 60 min): 0.294 ± 0.006 mol AO/mol DPPH^●
- partition constant PO^I (oil-interfacial) [5]: 16 ± 2
- 10^2 kI, interfacial rate constant for the reaction between 16ArN2^+ and AO [5]: 25.3 ± 0.7 M^−1 s^−1

Compound: OCCc1ccc(O)c(O)c1 [HT, Hydroxytyrosol]
- antioxidant efficiency order (time needed to reach 0.5% conjugated dienes) [1]: C8 > C10 > C16 > C3 > HT >> control
- partition constant PW^O [2]: 0.3 ± 0.1
- %AOO, percentage present in the oil phase [2]: 3.01%
- %AOW, percentage present in the aqueous phase [2]: 96.99%
- order of the percentages of AOs in the interfacial region (%AOI) [3]: %HTI < %C3I < %C16I < %C12I < %C10I < %C8I
- EC50 ([4]; t = 5 min): 0.323 ± 0.005 mol AO/mol DPPH^●
- EC50 ([4]; t = 15 min): 0.287 ± 0.004 mol AO/mol DPPH^●
- EC50 ([4]; t = 30 min): 0.279 ± 0.004 mol AO/mol DPPH^●
- EC50 ([4]; t = 60 min): 0.258 ± 0.004 mol AO/mol DPPH^●
- partition constant PW^I (aqueous-interfacial) [5]: 71 ± 12
- 10^2 kI, interfacial rate constant for the reaction between 16ArN2^+ and AO [5]: 14.2 ± 0.1 M^−1 s^−1
